Marks after values point to notes of the source that are not given here.
What was measured:
[1] = system: concanavalin A-induced hepatic damage in mice; assay: Inhibitory effect on concanavalin A-induced hepatic damage (plasma transaminase activities GOT, GPT); type: in vivo; details: male BALB/c mice; for Inhibition rate (%) i.p. GOT / Inhibition rate (%) p.o. GOT: plasma GOT 24 hours after con A; for Inhibition rate (%) i.p. GPT / Inhibition rate (%) p.o. GPT: plasma GPT 24 hours after con A
Protocol: The hepatic damage inhibitory effect of the adenosine A2 receptor agonist of the invention can be verified by a test using mice as described below. Among the various animal models proposed for the evaluation of hepatic damage inhibitory activity, the disease model used in this test resembles human hepatitis in the mechanism of onset. Using 6-weeks old male BALB/c mice in groups of 17-20, the test drug was administered intraperitoneally or orally. At 30 minutes after intraperitoneal administration of the test drug or 1 hour after oral administration, 0.6 mg of concanavalin A (con A) was administered intravenously to each animal to induce hepatic damage. At 24 hours after administration of con A, plasma transaminase activities [GOT (glutamic-oxaloacetic transaminase), GPT (glutamic-pyruvic transaminase)] were determined. The plasma transaminase activity inhibition rate in each group given a test drug relative to the control group was calculated by means of the following equation. Inhibition rate (%) = [(C-D)/C] × 100 [formula] where C represents the mean value of plasma transaminase activity in the control group and D represents the mean value of plasma transaminase activity in the group given a test drug.

ICR mice = details: 1000 mg/kg orally, 7-8 weeks old; cited from earlier work
[2] = 0.3 mg/kg i.p. 30 minutes before con A
[3] = 3 mg/kg i.p. 30 minutes before con A
[4] = 3 mg/kg p.o. 1 hour before con A
[5] = 1 mg/kg p.o. 1 hour before con A
[6] = 1 mg/kg i.p. 30 minutes before con A

Row | SMILES | Inhibition rate (%) i.p. GOT [1, 2] | Inhibition rate (%) i.p. GPT [1, 2] | Inhibition rate (%) i.p. GOT [1, 3] | Inhibition rate (%) i.p. GPT [1, 3] | Inhibition rate (%) p.o. GOT [1, 4] | Inhibition rate (%) p.o. GPT [1, 4] | death (ICR mice) | Inhibition rate (%) p.o. GOT [1, 5] | Inhibition rate (%) p.o. GPT [1, 5] | Inhibition rate (%) i.p. GOT [1, 6] | Inhibition rate (%) i.p. GPT [1, 6]
1 | CCCCCCC#Cc1nc(N)c2ncn([C@@H]3O[C@H](CO)[C@@H](O)[C@H]3O)c2n1 [Compound 5, 2-(1-octyn-1-yl)adenosine] | 90** % | 96** % | 91** % | 96** % | 93** % | 97** % | no death was encountered | – | – | – | –
2 | Nc1ncnc2c1ncn2[C@@H]1O[C@H](C(=O)NC2CC2)[C@@H](O)[C@H]1O [Compound 4, 1-(6-amino-9H-purin-9-yl)-1-deoxy-N-cyclopropyl-β-D-ribofuranuronamide] | – | – | – | – | – | – | – | 49** % | 56** % | – | –
3 | COc1cc(OC)cc(C(CNc2ncnc3c2ncn3[C@@H]2O[C@H](CO)[C@@H](O)[C@H]2O)c2ccccc2C)c1 (stereo partly shown) [Compound 3, N^6-[2-(3,5-dimethoxyphenyl)-2-(2-methylphenyl)ethyl]adenosine] | 61** % | 60** % | 83** % | 87** % | 86** % | 88** % | – | – | – | – | –
4 | CCNC(=O)[C@H]1O[C@@H](n2cnc3c(N)nc(NCCc4ccc(CCC(=O)O)cc4)nc32)[C@H](O)[C@@H]1O [Compound 1, 1-[6-amino-2-[(2-(4-(2-carboxyethyl)phenyl)-ethyl)amino]-9H-purin-9-yl]-1-deoxy-N-ethyl-β-D-ribofuranuronamide] | 85** % | 88** % | 93** % | 98** % | 64* % | 58* % | – | – | – | – | –
5 | Nc1nc(Nc2ccccc2)nc2c1ncn2[C@@H]1O[C@H](CO)[C@@H](O)[C@H]1O [Compound 2, 2-(phenylamino)adenosine] | 61** % | 65** % | – | – | – | – | – | – | – | 81** % | 91** %

Source: patent publication EP0983768A1, “MEDICINAL COMPOSITION FOR PREVENTION OR TREATMENT OF HEPATOPATHY” (Nippon Shinyaku Co., Ltd., priority 1997, dated 1998)
